From patent publication US20040063681A1, “Methods for using gold (III) complexes as anti-tumor and anti-HIV agents” (priority 2002, published 2004)
pIC50: −log10 of the molar value.

What was measured:
[1] = system: HeLa cells; assay: Flow cytometry annexin V/propidium iodide apoptosis assay; format: cell-based, human; details: after treatment (Complex 1a 6 and 15 h; straurosporine 15 h)
Source text: Flow cytometry: The gold(III) porphyrin-induced apoptosis of the HeLa cell line has been further examined by flow cytometry. During the early phase of apoptosis, cells lose the asymmetry of their membrane phospholipids, although the integrity of the cell membrane is maintained. A negatively charged phospholipid, named phosphatidylserine (PS), which is located in the inner part of the plasma membrane, becomes exposed to the cell surface. A phospholipid-binding protein, annexin V (green emissive upon binding), with high affinity binds preferentially to PS. Apoptotic cells therefore can be stained by annexin V before the dying cell changes its morphology and hydrolyzes its DNA. On the other hand, both DNA and the PS would be exposed for necrotic cells. In this case, propidium iodide (PI, red emissive upon binding), can be used to stain selectively the naked DNA. Therefore, both apoptotic and necrotic cells can be discriminated after adding these two staining reagents. For apoptotic cells, only annexin V would stain; for necrotic cells, both annexin V and PI would stain.
For comparison, a control cell culture experiment was performed in the absence of Complex 1a and straurosporine. […] Throughout the flow cytometric experiment, <1% of necrotic cells were observed.

[2] = system: plasmid DNA (pDR2); assay: Restriction endonuclease (ApaI) fragmentation assay; details: comparison compounds, lanes F and H of FIG. 8
Source text: Binding of the metalloporphyrin onto a duplex DNA such as plasmid DNA (pDR2) is expected to occupy the binding site of the restriction enzyme ApaI, thereby inhibiting the enzymatic DNA digestion. See Ikeda et al., J. Am. Chem. Soc. 104:296-297 (1982).
After ApaI digestion, (lane B), three bands corresponding to 6.6, 4.4 and 2.0 kbp were observed.

[3] = system: calf thymus DNA; assay: Viscosity evaluation of DNA; details: (η/ηo)^1/3 vs binding ratio r
Source text: Viscosity evaluation. The binding interaction of the gold(III) porphyrins can be further investigated by examining the change of DNA viscosity upon binding of the metalloporphyrin. If the metalloporphyrin binds to DNA by intercalation, this would cause chain elongation, unwinding and stiffening of the DNA helix as a consequence of untwisting of the base pairs and helical backbone needed to accommodate the intercalator.
For comparison, the viscosity profiles for ethidium bromide (intercalator) and Hoechst 33342 (minor groove binder) are also shown is FIG. 10.

[4] = Control UV-vis titration with sodium dodecyl sulfate instead of DNA; format: binding; details: sodium dodecyl sulfate (0-5 μM) instead of DNA
Source text: See Neidle, S. DNA structure and recognition; Oxford University Press: Oxford, 1994; 74-79.

[5] = system: Human Nasopharyngeal Carcinoma (SUNE1); assay: MTT cytotoxicity, SUNE1; format: cell-based
Source text: (§1) Human promyelocytic leukemia (HL-60), human hepatocellular carcinoma (HepG2), Human cervix epitheloid carcinoma cells (HeLa) and human oral epidermoid carcinoma cells (KB-3-1), were obtained from American Type Culture Collection (ATCC) (Rockville, Md.). […] Cell culture flasks and 96 well microtitre plates were from Nalge Nunc hit. Culture medium, other medium constituents and phosphate buffered saline (PBS) were obtained from Gibco BRL (Rockville, Md.). Cell Proliferation Kit I (MTT) was purchased from Roche (Mannheim, Germany).

[6] = system: Human Nasopharyngeal Carcinoma (cisplatin resistance, CNE1); assay: MTT cytotoxicity, CNE1; format: cell-based
Source text: as §1

[7] = system: Human Hepatocellular Carcinoma (HepG2); assay: MTT cytotoxicity, HepG2; format: cell-based; details: growth inhibition
Source text: (§2) Human promyelocytic leukemia (HL-60), human hepatocellular carcinoma (HepG2), Human cervix epitheloid carcinoma cells (HeLa) and human oral epidermoid carcinoma cells (KB-3-1), were obtained from American Type Culture Collection (ATCC) (Rockville, Md.). The multi-drug-resistant variant KB-V1 cell line was obtained by stepwise selections for vinblastine resistance as described by Shen et al., J. Biol. Chem. 261:7762-7770 (1986)], and was generously provided by Dr Michael Gottesman (NIH, Bethesda, Md.). Human nasopharyngeal carcinoma cells (SUNE1 and its cisplatin resistance variant, CNE1) were derived from poorly differentiated NPC in Chinese patients as described by Gu et al., Chin. J. Cancer 2:270-272 (1983), and were generously provided by Dr S. W. Tsao (The University of Hong Kong, Hong Kong, PRC). Cell culture flasks and 96 well microtitre plates were from Nalge Nunc hit. Culture medium, other medium constituents and phosphate buffered saline (PBS) were obtained from Gibco BRL (Rockville, Md.). Cell Proliferation Kit I (MTT) was purchased from Roche (Mannheim, Germany).
(§3) The anti-cancer activities of the gold(III) porphyrin complexes were evaluated toward some established human cancer cell lines: promyelocytic leukemia (HL-60), hepatocellular carcinoma (HepG2), cervix epitheloid carcinoma (HeLa), epidermoid carcinoma (KB-3-1) and its multi-drug resistant variant (KB-V1), nasopharyngeal carcinoma (SUNE1) and its cisplatin-resistant variant (CNE1). The experiments were carried out by following the MTT procedure (see Mosmann et al., J. Immunol. Methods 65:55-63 (1983). The IC50 values of the gold(III) porphyrin complexes together with that of cisplatin, and KAuCl4 are provided in Table 4a; and the IC50 values of the gold(III) Schiff-base and bis(pyridyl)carboxamide complexes are shown in Table 4b. The cytotoxicity profiles of some selected gold(III) porphyrin complexes toward SUNE1 and its cisplatin-resistant variant CNE1 are also shown in FIG. 7.

[8] = system: Human Promyelocytic Leukemia (HL-60); assay: MTT cytotoxicity, HL-60; format: cell-based; details: growth inhibition
Source text: as §2, §3

[9] = system: calf thymus DNA; assay: UV-vis absorption titration with calf thymus DNA; format: binding; details: for hypochromicity / intrinsic binding constant (Kb): Tris buffer
Method: The calf thymus DNA was purchased from Sigma-Aldrich Chemical Co. and was purified by phenol-chloroform extraction. The DNA was dissolved in buffer (5 mM Tris, 5 mM NaCl, pH 7.2). The concentration (per base pair) of calf thymus DNA was determined spectrophotometrically on the basic of ε260, 13,200 M^−1cm^−1bp.
Absorption Titration. The binding interaction of the gold(III) porphyrins to duplex DNA has been studied by UV-vis spectroscopy.
where [ctDNA] is the concentration of DNA, Δεap═|εA−εB| in which εA=Aobs/[complex], and Δε=|εB−εF|. εB and εF correspond to the extinction coefficient of DNA-bound gold(III) porphyrin and the free gold(III) porphyrins, respectively.
The effect of temperature on the intrinsic binding constants was investigated. Using the van't Hoff equation (2): […]

[10] = system: Human Cervix Epitheloid Carcinoma (HeLa); assay: MTT cytotoxicity, HeLa; format: cell-based
Source text: as §1

[11] = system: human cancer cell lines (HL-60, HepG2, HeLa, KB-3-1, KB-V1, SUNE1, CNE1); format: cell-based; details: killing oral epidermoid and nasopharyngeal cancer cells
Source text: as §2, with “Cell Proliferation Kit I (MTT) was purchased from Roche (Mannheim, Germany).” left out
The anti-cancer activities of the gold(III) porphyrin complexes were evaluated toward some established human cancer cell lines: promyelocytic leukemia (HL-60), hepatocellular carcinoma (HepG2), cervix epitheloid carcinoma (HeLa), epidermoid carcinoma (KB-3-1) and its multi-drug resistant variant (KB-V1), nasopharyngeal carcinoma (SUNE1) and its cisplatin-resistant variant (CNE1). […]

[12] = target: T1, HIV-1 reverse transcriptase (Human immunodeficiency virus type 1 group M subtype B, UniProt P04585); assay: HIV-1 reverse transcriptase activity, ELISA method; format: biochemical; details: drug concentration fixed at 6 μM
T1 construct: treatment of HIV-1 RT in Lysis buffer (2 ng, 128.7 μL) with Complex 1j
Method: HIV-1 reverse transcriptase activities were measured by an ELISA method (see Eberle et al, J. Virol. Methods, 40:347-356 (1992) performed by incubating the enzyme with digoxigenin-labeled deoxyuridin-5′-triphosphate (dUTP) and the biotin-labeled analogue during reverse transcription starting from the template/primer hybrid poly(A)•oligo(dT)15. After reverse transcription, the newly synthesized DNA was immobilized onto streptavidin-coated ELISA wells, and the incorporation of the dioxigenin-labeled dUTP was assayed by chemiluminescence method. For example, treatment of HIV-1 RT in Lysis buffer (2 ng, 128.7 μL) with Complex 1j (1.3 μL of […] stock solution) dissolved in TBS at 37° C. produced significant RT activity inhibition (˜95%) after 30 min incubation.

## CN[C@@H]1C[C@H]2O[C@@](C)([C@@H]1OC)n1c3ccccc3c3c4c(c5c6ccccc6n2c5c31)C(=O)NC4 [straurosporine, reference compound]
[1]
  annexin V emission: the magnitude of the annexin V emission was enhanced

## CCOc1ccc(-c2nc3ccc(-c4nc5ccc(N6CCN(C)CC6)cc5[nH]4)cc3[nH]2)cc1 [Hoechst 33342, reference compound]
[2]
  effect on ApaI digestion of pDR2: complete inhibition of the DNA digestion
[3]
  change in viscosity of the DNA: no appreciable change in viscosity of the DNA

## Fc1c(F)c(F)c(-c2c3nc(c(-c4c(F)c(F)c(F)c(F)c4F)c4ccc([n-]4)c(-c4c(F)c(F)c(F)c(F)c4F)c4nc(c(-c5c(F)c(F)c(F)c(F)c5F)c5ccc2[n-]5)C=C4)C=C3)c(F)c1F.[Au+3].[Cl-] [Complex 1g]
[4]
  bathochromic shift: 6 nm
  hypochromicity of the Soret band: 48%
[5]
  IC50 ratio [cisplatin/gold (III) porphyrin complexes] SUNE1: 5.97
[5]; MTT, growth inhibition
  pIC50: 5.68
[6]
  IC50 ratio [cisplatin/gold (III) porphyrin complexes] CNE1: 28.1
[6]; MTT, growth inhibition, cisplatin resistant
  pIC50: 5.84
[7]
  pIC50: 5.64
[8]
  pIC50: 5.84
[9]; 291.8 K
  hypochromicity: 18.2%
  intrinsic binding constant (Kb): 0.73 × 10^6 dm^3mol^−1
[9]; 297.6 K
  hypochromicity: 18.0%
  intrinsic binding constant (Kb): 0.58 × 10^6 dm^3mol^−1
[9]; 301.4 K
  hypochromicity: 16.5%
  intrinsic binding constant (Kb): 0.47 × 10^6 dm^3mol^−1
[9]; 306.1 K
  hypochromicity: 10.1%
  intrinsic binding constant (Kb): 0.42 × 10^6 dm^3mol^−1
[9]; 311.7 K
  hypochromicity: 8.7%
  intrinsic binding constant (Kb): 0.34 × 10^6 dm^3mol^−1
[9]; binding to calf thymus DNA, van't Hoff analysis
  ΔH°: −7.0 ± 0.4 kcalmol^−1
[9]; binding to calf thymus DNA, van't Hoff analysis, 298 K
  ΔG° (298 K): −7.8 ± 0.5
[10]
  IC50 ratio [cisplatin/gold (III) porphyrin complexes] HeLa: 3.52
[10]; MTT, growth inhibition
  pIC50: 5.50

## [Au+3].[Cl-].[Cl-].[Cl-].[Cl-].[K+] [KAu^IIICl4, reference compound]
[11]
  times less potent than Complex 1a: about 40 times
[12]
  HIV-1 RT inhibition: 48%
